Legend:
[1] = tested on: antibodies in sera from SARS patients (sera 1a, 1b, 2, 6, 37, 62, London, SARS-yellow, SARS-green); format: binding, human; set-up: Binding of serum 6 to linear peptides of protein X1 of SARS-CoV Urbani / Binding of serum 37 to linear peptides of protein X1 of SARS-CoV Urbani / Binding of serum 6 to looped/cyclic peptide (PEPSCAN-ELISA) / Binding of serum 37 to looped/cyclic peptide (PEPSCAN-ELISA) / Binding of serum 37 to looped/cyclic peptides of protein X1 of SARS-CoV Urbani / Binding of serum 6 to linear peptides of protein X2 / Binding of serum 37 to linear peptides of protein X2 / Binding of serum 37 to looped/cyclic peptides of protein X2 of SARS-CoV Urbani / Binding of serum 6 to linear peptides of protein M of SARS-CoV Urbani / Binding of serum 37 to linear peptides of protein M of SARS-CoV Urbani / Binding of serum 6 to looped/cyclic peptides of protein M of SARS-CoV Urbani / Binding of serum 37 to looped/cyclic peptides of protein M of SARS-CoV Urbani / Binding of serum 6 to linear peptides of protein X3 of SARS-CoV Urbani / Binding of serum 37 to linear peptides of protein X3 of SARS-CoV Urbani / Binding of serum 37 to looped/cyclic peptides of protein X3 of SARS-CoV Urbani / Binding of serum 6 to linear peptides of protein X4 of SARS-CoV Urbani / Binding of serum 37 to linear peptides of protein X4 of SARS-CoV Urbani / Binding of serum 37 to looped/cyclic peptides of protein X4 of SARS-CoV Urbani / Binding of serum 6 to linear peptides of protein X5 of SARS-CoV Urbani / Binding of serum 37 to linear peptides of protein X5 of SARS-CoV Urbani / Binding of serum 37 to looped/cyclic peptides of protein X5 of SARS-CoV Urbani / Binding of serum 6 to linear peptides of protein N of SARS-CoV Urbani / Binding of serum 37 to linear peptides of protein N of SARS-CoV Urbani / Binding of serum 6 to linear peptide (PEPSCAN-ELISA) / Binding of serum 1a to looped/cyclic peptides of protein N of SARS-CoV Urbani / Binding of serum 1b to looped/cyclic peptides of protein N of SARS-CoV Urbani / Binding of serum 2 to looped/cyclic peptides of protein N of SARS-CoV Urbani / Binding of serum 6 to looped/cyclic peptides of protein N of SARS-CoV Urbani / Binding of serum 37 to looped/cyclic peptides of protein N of SARS-CoV Urbani / Binding of serum 62 to looped/cyclic peptides of protein N of SARS-CoV Urbani / Binding of serum London to looped/cyclic peptides of protein N of SARS-CoV Urbani / Binding of serum SARS-green to looped/cyclic peptides of protein N of SARS-CoV Urbani: unit not given here
[2] = tested on: rabbit serum obtained by immunizing a rabbit with the SARS-CoV strain Frankfurt 1; format: binding; set-up: Binding of a rabbit serum to linear peptides / Binding of a rabbit serum to looped peptides / Rabbit serum linear peptides / Rabbit serum looped peptides / Binding of a rabbit serum to linear peptides of protein N of SARS-CoV Urbani (Rabbit serum linear peptides) / Binding of a rabbit serum to looped/cyclic peptides of protein N of SARS-CoV Urbani (Rabbit serum looped peptides): unit not given here
[3] = tested on: recombinant human anti-SARS-CoV antibody 03-018; format: binding; set-up: Binding of antibody 03-018 to linear peptides of the N protein of SARS-CoV Urbani / Binding of antibody 03-018 to looped/cyclic peptides of the N protein of SARS-CoV Urbani: unit not given here
[4] = tested on: control sera (pooled serum of ten healthy LUMC hospital workers; commercial negative donor pooled serum from the Dutch bloodbank); format: binding, human; set-up: Binding of Control serum LUMC to linear peptides / Binding of Control serum Blood-bank to linear peptides / Binding of Control serum LUMC to looped peptides / Binding of Control Serum Blood-Bank to Looped peptides / Binding of Control serum LUMC to linear peptides of the protein M of SARS-CoV Urbani / Binding of Control serum Blood-bank to linear peptides of the protein M of SARS-CoV Urbani / Binding of Control serum LUMC to looped peptides of the protein M of SARS-CoV Urbani / Binding of Control Serum Blood-Bank to Looped peptides of the protein M of SARS-CoV Urbani: unit not given here

Sequence	Binding of serum 1a to linear peptides of protein N of SARS-CoV Urbani [1]	Binding of serum 1a to looped/cyclic peptides of protein N of SARS-CoV Urbani [1]	Binding of serum 1b to linear peptides of protein N of SARS-CoV Urbani [1]	Binding of serum 1b to looped/cyclic peptides of protein N of SARS-CoV Urbani [1]	Binding of serum 2 to linear peptides of protein N of SARS-CoV Urbani [1]	Binding of serum 2 to looped/cyclic peptides of protein N of SARS-CoV Urbani [1]	Binding of serum 6 to linear peptides of protein N of SARS-CoV Urbani [1]	Binding of serum 6 to looped/cyclic peptides of protein N of SARS-CoV Urbani [1]	Binding of serum 37 to linear peptides of protein N of SARS-CoV Urbani [1]	Binding of serum 37 to looped/cyclic peptides of protein N of SARS-CoV Urbani [1]	Binding of serum 62 to linear peptides of protein N of SARS-CoV Urbani [1]	Binding of serum 62 to looped/cyclic peptides of protein N of SARS-CoV Urbani [1]	Binding of serum London to linear peptides of protein N of SARS-CoV Urbani [1]	Binding of serum London to looped/cyclic peptides of protein N of SARS-CoV Urbani [1]	Binding of serum SARS-green to linear peptides of protein N of SARS-CoV Urbani [1]	Binding of serum SARS-green to looped/cyclic peptides of protein N of SARS-CoV Urbani [1]	Binding of serum SARS-yellow to linear peptides of protein N of SARS-CoV Urbani [1]	Binding of serum SARS-yellow to looped/cyclic peptides of protein N of SARS-CoV Urbani [1]	Binding of a rabbit serum to linear peptides of protein N of SARS-CoV Urbani (Rabbit serum linear peptides) [2]	Binding of a rabbit serum to looped/cyclic peptides of protein N of SARS-CoV Urbani (Rabbit serum looped peptides) [2]	other results
ATEGALNTPKDHIGT	0.2	0.3	0.1	0.2	0.3	0.4	0.1	0.2	0.7	0.4	0.7	0.3	0.5	0.3	0.4	0.3	0.6	0.2	0.1	0.1	Binding of antibody 03-018 to linear peptides of the N protein of SARS-CoV Urbani [3]: 0.1; Binding of antibody 03-018 to looped/cyclic peptides of the N protein of SARS-CoV Urbani [3]: 0.2; Binding of Control Serum Blood-Bank to Looped peptides [4]: 0.5; Binding of Control serum Blood-bank to linear peptides [4]: 0.8; Binding of Control serum LUMC to linear peptides [4]: 0.7; Binding of Control serum LUMC to looped peptides [4]: 0.5
ATRRVRGGDGKMKEL	0.3	0.2	0.1	0.1	0.3	0.2	0.3	0.1	0.8	0.4	0.7	0.3	0.5	0.3	0.3	0.1	0.6	0.4	0.3	0.3	Binding of antibody 03-018 to linear peptides of the N protein of SARS-CoV Urbani [3]: 0.1; Binding of antibody 03-018 to looped/cyclic peptides of the N protein of SARS-CoV Urbani [3]: 0.2; Binding of Control Serum Blood-Bank to Looped peptides [4]: 0.5; Binding of Control serum Blood-bank to linear peptides [4]: 0.7; Binding of Control serum LUMC to linear peptides [4]: 0.7; Binding of Control serum LUMC to looped peptides [4]: 0.5
DDFSRQLQNSMSGAS	0.2	0.3	0.1	0.1	0.2	0.3	0.2	0.1	0.8	0.4	0.7	0.3	0.7	0.2	0.4	0.2	0.6	0.1	0.5	0.3	Binding of antibody 03-018 to linear peptides of the N protein of SARS-CoV Urbani [3]: 0.2; Binding of antibody 03-018 to looped/cyclic peptides of the N protein of SARS-CoV Urbani [3]: 0.2; Control Serum Blood-Bank Looped peptides [4]: 0.3; Control serum Blood-bank linear peptides [4]: 0.8; Control serum LUMC linear peptides [4]: 0.6; Control serum LUMC looped peptides [4]: 0.3
DEAQPLPQRQKKQPT	0.2	0.2	0.2	0.1	0.3	0.2	0.3	0.1	0.8	0.3	0.7	0.2	1.5	0.3	0.6	0.0	1.6	0.2	0.1	0.0	Binding of antibody 03-018 to linear peptides of the N protein of SARS-CoV Urbani [3]: 0.1; Binding of antibody 03-018 to looped/cyclic peptides of the N protein of SARS-CoV Urbani [3]: 0.2; Control Serum Blood-Bank Looped peptides [4]: 0.3; Control serum Blood-bank linear peptides [4]: 0.7; Control serum LUMC linear peptides [4]: 0.8; Control serum LUMC looped peptides [4]: 0.3

Reference: patent US20070128217A1 (priority 2003, published 2007)
